What was measured:
[1] = 101.33 kPa, Liquid
[2] = xn = mol fraction of the nth substance listed; settings: 101.3 kPa, Liquid

C1COCO1 [1,3-dioxolane]
[1]
Settings | mass density [kg/m3] | speed of sound [m/s]
298.15 K | 1058.98 | 1340.2
313.15 K | 1040 | 1270.9

C1COCO1 [1,3-dioxolane] + CC(C)(C)O
[2]
Settings | mass density, 298.15 K [kg/m3] | mass density, 313.15 K [kg/m3] | speed of sound, 298.15 K [m/s] | speed of sound, 313.15 K [m/s]
x1 = 0.0495 | 789.79 | – | 1129.2 | –
x1 = 0.0567 | – | 775.49 | – | 1065.2
x1 = 0.0949 | – | 782.77 | – | 1071.1
x1 = 0.0965 | 798.83 | – | 1135.6 | –
x1 = 0.1973 | – | 803.78 | – | 1087.4
x1 = 0.1996 | 820.33 | – | 1151 | –
x1 = 0.2909 | 840.96 | – | 1165.8 | –
x1 = 0.2919 | – | 824.8 | – | 1103.5
x1 = 0.4039 | – | 851.81 | – | 1123.4
x1 = 0.4049 | 868.7 | – | 1186.2 | –
x1 = 0.4951 | – | 875.4 | – | 1141.2
x1 = 0.4972 | 892.83 | – | 1204.9 | –
x1 = 0.5948 | – | 903.12 | – | 1162.4
x1 = 0.5974 | 920.82 | – | 1226.8 | –
x1 = 0.6997 | – | 934.45 | – | 1187.1
x1 = 0.7033 | 952.73 | – | 1252.5 | –
x1 = 0.8031 | – | 967.86 | – | 1213.5
x1 = 0.8033 | 985.46 | – | 1279.3 | –
x1 = 0.8944 | 1017.75 | – | 1305.9 | –
x1 = 0.8959 | – | 1000.17 | – | 1239.6
x1 = 0.9439 | 1036.49 | – | 1321.3 | –
x1 = 0.9464 | – | 1018.99 | – | 1254.3

C1COCO1 [1,3-dioxolane] + CC(C)CO
[2]
Settings | mass density, 298.15 K [kg/m3] | mass density, 313.15 K [kg/m3] | speed of sound, 298.15 K [m/s] | speed of sound, 313.15 K [m/s]
x1 = 0.0434 | – | 793.86 | – | 1140.5
x1 = 0.0675 | 810.83 | – | 1193.2 | –
x1 = 0.0922 | – | 802.94 | – | 1143.6
x1 = 0.0932 | 815.89 | – | 1195.3 | –
x1 = 0.1938 | – | 822.73 | – | 1151.2
x1 = 0.2005 | 837.99 | – | 1205.1 | –
x1 = 0.2946 | 858.48 | 843.76 | 1214.8 | 1159.9
x1 = 0.395 | 881.68 | – | 1226.7 | –
x1 = 0.3984 | – | 866.86 | – | 1170.5
x1 = 0.5044 | – | 892.29 | – | 1182.9
x1 = 0.5062 | 908.95 | – | 1241.8 | –
x1 = 0.6042 | – | 917.95 | – | 1196.4
x1 = 0.6065 | 935.18 | – | 1258.1 | –
x1 = 0.6962 | – | 943.18 | – | 1211.4
x1 = 0.6977 | 960.69 | – | 1274.3 | –
x1 = 0.7995 | 991.23 | – | 1295.4 | –
x1 = 0.8009 | – | 974.09 | – | 1230.6
x1 = 0.8928 | – | 1003.34 | – | 1249.5
x1 = 0.8957 | 1022.45 | – | 1316.5 | –
x1 = 0.9439 | – | 1020.41 | – | 1260.2
x1 = 0.9451 | 1039.33 | – | 1327.6 | –

C1COCCO1 [1,4-dioxane]
[1]
Settings | mass density [kg/m3] | speed of sound [m/s]
298.15 K | 1027.96 | 1344.8
313.15 K | 1010.8 | 1279.8

C1COCCO1 [1,4-dioxane] + CC(C)(C)O
[2]
Settings | mass density, 298.15 K [kg/m3] | mass density, 313.15 K [kg/m3] | speed of sound, 298.15 K [m/s] | speed of sound, 313.15 K [m/s]
x1 = 0.0502 | 791.11 | – | 1133.5 | –
x1 = 0.0525 | – | 776.05 | – | 1069.8
x1 = 0.0802 | 797.29 | – | 1139.5 | –
x1 = 0.0886 | – | 783.75 | – | 1078.1
x1 = 0.2051 | – | 808.89 | – | 1102.3
x1 = 0.2164 | 826.41 | – | 1166.2 | –
x1 = 0.287 | – | 827.2 | – | 1118.9
x1 = 0.2915 | 843.19 | – | 1180.4 | –
x1 = 0.3926 | – | 851.46 | – | 1139.9
x1 = 0.3944 | 867.16 | – | 1201.4 | –
x1 = 0.4938 | – | 875.49 | – | 1160.8
x1 = 0.496 | 891.65 | – | 1222.4 | –
x1 = 0.592 | – | 899.61 | – | 1181.6
x1 = 0.5929 | 915.92 | – | 1243.8 | –
x1 = 0.6814 | 938.8 | – | 1264.1 | –
x1 = 0.6904 | – | 924.78 | – | 1202.7
x1 = 0.7994 | – | 953.91 | – | 1227.9
x1 = 0.8029 | 971.23 | – | 1293.2 | –
x1 = 0.8871 | – | 978.21 | – | 1250.3
x1 = 0.8893 | 995.28 | – | 1315.3 | –
x1 = 0.9287 | 1006.7 | – | 1325.5 | –
x1 = 0.9421 | – | 993.91 | – | 1264.2

CC(C)CO [2-methyl-1-propanol]
[1]
Settings | mass density [kg/m3] | speed of sound [m/s]
298.15 K | 797.83 | 1188.5
313.15 K | 785.96 | 1138.4

CC(C)CO [2-methyl-1-propanol] + C1COCCO1
[2]
Settings | mass density, 298.15 K [kg/m3] | mass density, 313.15 K [kg/m3] | speed of sound, 298.15 K [m/s] | speed of sound, 313.15 K [m/s]
x2 = 0.0559 | 809.27 | – | 1196.2 | –
x2 = 0.0612 | – | 798.12 | – | 1146
x2 = 0.0898 | – | 803.92 | – | 1149.5
x2 = 0.0943 | 817.3 | – | 1201.4 | –
x2 = 0.1946 | – | 825.35 | – | 1162.3
x2 = 0.1959 | 838.82 | – | 1215.5 | –
x2 = 0.2981 | 860.89 | – | 1229.7 | –
x2 = 0.3039 | – | 848.25 | – | 1176.2
x2 = 0.4033 | – | 869.73 | – | 1189.2
x2 = 0.4039 | 884.22 | – | 1245.1 | –
x2 = 0.5062 | 907.2 | – | 1260.6 | –
x2 = 0.5086 | – | 892.99 | – | 1203.6
x2 = 0.5674 | – | 906.3 | – | 1211.8
x2 = 0.603 | 929.49 | – | 1276.1 | –
x2 = 0.7018 | – | 937.3 | – | 1232
x2 = 0.7021 | 952.9 | – | 1292.4 | –
x2 = 0.7966 | 976 | – | 1308.7 | –
x2 = 0.8296 | – | 967.84 | – | 1251.9
x2 = 0.8879 | – | 982.25 | – | 1261
x2 = 0.8943 | 1000.57 | – | 1326 | –
x2 = 0.9298 | – | 992.74 | – | 1267.7
x2 = 0.9328 | 1010.53 | – | 1333 | –

CC(C)(C)O [2-methylpropan-2-ol]
[1]
Settings | mass density [kg/m3] | speed of sound [m/s]
298.15 K | 780.86 | 1122.8
313.15 K | 765.16 | 1057.4

— the NIST ThermoML archive (doi:10.1016/j.jct.2004.07.015)
